Columns and labels:
Botrytis cinerea = test: Liquid culture test in well plates, Botrytis cinerea (gray mould), growth inhibition; type: cell-based; settings: 72 hours, 24° C.
Description: (§1) Mycelia fragments or conidia suspensions of a fungus, prepared either freshly from liquid cultures of the fungus or from cryogenic storage, are directly mixed into nutrient broth. DMSO solutions of the test compound (max. 10 mg/mL) is diluted with 0.025% Tween20 by factor 50 and 10 µL of this solution is pipetted into a microtiter plate (96-well format). […] The test plates are incubated in the dark at 24° C. and 96% relative humidity (rh). The inhibition of fungal growth is determined photometrically and visually after 3 - 7 days, depending on the pathosystem, and percent antifungal activity relative to the untreated check is calculated.
Conidia of the fungus from cryogenic storage were directly mixed into nutrient broth (PDB potato dextrose broth). After placing a DMSO solution of the test compositions into a microtiter plate (96-well format), the nutrient broth containing the fungal spores was added.

Alternaria solani = test: Liquid culture test in well plates, Alternaria solani (early blight of tomato/potato), growth inhibition; type: cell-based; settings: 48 hours, 24° C.
Description: as §1
Conidia of the fungus from cryogenic storage were directly mixed into nutrient broth (PDB potato dextrose broth). After placing a DMSO solution of the test compositions into a microtiter plate (96-well format) the nutrient broth containing the fungal spores was added.

Aureobasidin A
(A) inhibition (%) (Botrytis cinerea; Aureobasidin A 0.0012 ppm alone): 6% | (A) inhibition (%) (Botrytis cinerea; Aureobasidin A 0.0025 ppm alone): 6% | (A) inhibition (%) (Botrytis cinerea; Aureobasidin A 0.0050 ppm alone): 4% | (A) inhibition (%) (Botrytis cinerea; Aureobasidin A 0.0100 ppm alone): 34% | (A) inhibition (%) (Botrytis cinerea; Aureobasidin A 0.0200 ppm alone): 41% | (A) inhibition (%) (Alternaria solani; Aureobasidin A 0.02 ppm alone): 24%

O=C1c2ccccc2C(=O)N1SC(Cl)(Cl)Cl [Folpet, folpet, reference compound]
inhibition at 0.25 ppm (Botrytis cinerea; Botrytis cinerea, Folpet 0.25 ppm alone, read-out: (B) inhibition (%)): 21% | inhibition at 0.5 ppm (Botrytis cinerea; Botrytis cinerea, Folpet 0.50 ppm alone, read-out: (B) inhibition (%)): 44% | inhibition at 1 ppm (Botrytis cinerea; Botrytis cinerea, Folpet 1.00 ppm alone, read-out: (B) inhibition (%)): 78% | inhibition at 0.25 ppm (Alternaria solani; Alternaria solani, Folpet 0.25 ppm alone, read-out: (B) inhibition (%)): 3%

Reference: patent US20230210113A1, “FUNGICIDAL COMPOSITIONS” (SYNGENTA CROP PROTECTION AG, priority 2020, published 2023)
